Results published in US6765003B1, “3-Arylsulfonyl-2 (substituted methyl) propanoic acid derivatives as matrix metalloproteinase inhibitors” (Pharmacia Italia, SpA, priority 1999, dated 2004).
Structures can show the parent of a compound that is named as a salt. Where two headings read alike, the source gives them in different places.

Experiments:
[1] = target: T1, Human gelatinase-A (MMP-2) (Homo sapiens, UniProt P08253); experiment: MMP inhibition, internal fluorescence quenching method (MCA peptide substrate); assay type: biochemical
T1 sequence (P08253 110-660): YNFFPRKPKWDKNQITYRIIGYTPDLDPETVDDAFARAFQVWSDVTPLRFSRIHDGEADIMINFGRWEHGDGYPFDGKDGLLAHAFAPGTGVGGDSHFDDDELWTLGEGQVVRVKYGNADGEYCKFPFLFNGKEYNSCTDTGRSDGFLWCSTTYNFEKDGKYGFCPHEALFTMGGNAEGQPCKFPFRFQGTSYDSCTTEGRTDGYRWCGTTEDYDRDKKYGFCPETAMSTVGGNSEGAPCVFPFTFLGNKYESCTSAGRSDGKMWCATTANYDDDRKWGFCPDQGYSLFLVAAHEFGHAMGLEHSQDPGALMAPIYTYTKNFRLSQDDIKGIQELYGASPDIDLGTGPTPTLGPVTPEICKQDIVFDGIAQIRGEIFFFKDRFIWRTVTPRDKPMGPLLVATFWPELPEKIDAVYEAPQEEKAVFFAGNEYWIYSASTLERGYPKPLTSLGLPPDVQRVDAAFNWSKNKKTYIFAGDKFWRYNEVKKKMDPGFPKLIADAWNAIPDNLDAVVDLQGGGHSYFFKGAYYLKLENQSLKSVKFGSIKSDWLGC
Experimental: (§1) The inhibitory activity of the compounds of the present invention was evaluated in vitro against one or more of the MMP enzymes (gelatinases, collagenases, stromelysins) using the internal fluorescence quenching method. The assay method is based on the hydrolysis of the MMP substrate, MCA-Pro-Leu-Gly-Leu-DPA-Ala—Arg-NH2 at 37° C. (see Knight, C. G. et al., FEBS Lett. 296:263-266, 1992). The enzymes cleave at the Gly-Leu bond removing the internally quenching DPA group. The release of the highly fluorescent peptide MCA-Pro-Leu was monitored with a LS50 Perkin Elmer fluorimeter equipped with a Peltier-thermostated cell holder using an excitation wavelength of 326 nm and an emission wavelenght of 398 nm. Slis were set at 14/14. Proper determination of steady-state rates of substrate cleavage required a preincubation at 37° C. of 15 minutes to allow for complete equilibration of the enzyme-inhibitor complex. […] Rates of substrate hydrolysis, expressed as fluorescence arbitrary units per minute, were calculated by least-square analysis of the steady-state linear progression curves. The steady-state rates were fitted to the Michaelis equation describing competitive inhibition; in particular, Ki,app were determined by fining the data to the tight-binding equation of Morrison (Biochem. Biophys. Acta, 185:269-286, 1969) by non-linear methods.
(§2) Human gelatinase-A (MMP-2) was obtained as penzyme (72 kDa) and was activated with 1 mM 4-aminophenylmercuric acetate for 30 min at 37° C. immediately prior to use. The inhibitor was diluted into the assay from a stock solution in 100% DMSO, and controls substituted an equal volume of DMSO so that the final DMSO concentration from inhibitor and substrate dilution in all assays was 1%. The concentration of MMP-2 was 19.2 picoM. For compounds of formula (I) where X is —OH, the assay buffer was 50 mM Tris/HCl pH 6.5 containing 150 mM NaCl, 10 mM CaCl2, 0.01 mM ZnCl2 and 0.05% Brij35 (Protocol A). Other conditions were as stated above.
The compounds of formula (I) where X is —NHOH were tested against MMP-2 and MMP-1 under the conditions stated above, but the assay solution was buffered at pH 7.4 (Protocol B).

[2] = target: T2, Human fibroblast collagenase (MMP-1) (Homo sapiens, UniProt P03956); experiment: MMP inhibition, internal fluorescence quenching method (MCA peptide substrate); assay type: biochemical
T2 sequence (P03956 101-269): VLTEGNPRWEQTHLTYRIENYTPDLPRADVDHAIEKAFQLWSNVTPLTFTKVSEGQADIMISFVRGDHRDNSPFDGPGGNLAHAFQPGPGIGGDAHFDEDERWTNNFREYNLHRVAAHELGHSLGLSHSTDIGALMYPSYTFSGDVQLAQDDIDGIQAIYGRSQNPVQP
Experimental: as §1, §2
Assay conditions were the same as above, but enzyme concentration was 200 picoM.

[3] = Protocol A: Tris/HCl pH 6.5, 37° C., MMP-2 19.2 picoM, substrate 3 μM, carboxylic acids, read-out: MMP-2 Ki
[4] = Protocol A: pH 6.5, 37° C., enzyme 200 picoM, substrate 3 μM, carboxylic acids, read-out: MMP-1 Ki
[5] = Protocol B: pH 7.4, 37° C., hydroxamic acids (X is —NHOH), read-out: MMP-2 Ki (picoM)
[6] = Protocol B: pH 7.4, 37° C., hydroxamic acids (X is —NHOH), read-out: MMP-1 Ki (picoM)

Row | Ki [1, 3] | Ki [2, 4] | other results | Structure (SMILES)
1 | 8.3 nM | – | melting point: 158 to 162 °C | O=C(O)C(CSc1ccccc1)CS(=O)(=O)c1ccc(-c2ccc(Cl)cc2)cc1 (racemic) [Example 1, 3-[(4′-chloro[1,1′-biphenyl]-4-yl)sulfonyl]-2-[(phenylsulfanyl)methyl]propanoic acid]
2 | 5.5 nM | > 2000 nM | – | CN1C(=O)N(CC(CS(=O)(=O)c2ccc(-c3ccc(Cl)cc3)cc2)C(=O)O)C(=O)C1(C)C (racemic) [Example 5, 3-[(4′-chloro[1,1′-biphenyl]-4-yl)sulfonyl]-2-[(3,4,4-trimethyl-2,5-dioxo-1-imidazolidinyl)methyl]propanoic acid]
3 | 6 nM | – | – | O=C(O)C(CSc1ccccc1)CS(=O)(=O)c1ccc(-c2ccc(Cl)cc2)cc1 (single isomer, unassigned) [3, Isomer 1]
4 | 660 nM | – | – | O=C(O)C(CSc1ccccc1)CS(=O)(=O)c1ccc(-c2ccc(Cl)cc2)cc1 (single isomer, unassigned) [3, Isomer 2]
5 | 3.7 nM | 3600 nM | – | CN1C(=O)N(CC(CS(=O)(=O)c2ccc(-c3ccc(Cl)cc3)cc2)C(=O)O)C(=O)C1(C)C (single isomer, unassigned) [6, Isomer 1]
6 | 50 nM | – | – | CN1C(=O)N(CC(CS(=O)(=O)c2ccc(-c3ccc(Cl)cc3)cc2)C(=O)O)C(=O)C1(C)C (single isomer, unassigned) [6, Isomer 2]
7 | – | – | Ki [1, 5]: 0.159 nM; Ki [2, 6]: 149 nM | O=C(NO)C(CSc1ccccc1)CS(=O)(=O)c1ccc(-c2ccc(Cl)cc2)cc1 (stereo not shown) [Example 4, 3-[(4′-chloro[1,1′-biphenyl]-4-yl)sulfonyl]-N-hydroxy-2-[(phenylsulfanyl)methyl]propanamide]
8 | 42 nM | – | melting point: > 200 °C (dec.) | CN1C(=O)N(CC(CS(=O)(=O)c2ccc(-c3ccccc3)cc2)C(=O)O)C(=O)C1(C)C (stereo not shown) [Example 7]
9 | – | – | Ki [1, 5]: 0.107 nM; Ki [2, 6]: 26.8 nM | CN1C(=O)N(CC(CS(=O)(=O)c2ccc(-c3ccc(Cl)cc3)cc2)C(=O)NO)C(=O)C1(C)C (stereo not shown) [Example 8, 3-[(4′-chloro[1,1′-biphenyl]-4-yl)sulfonyl]-N-hydroxy-2-[(3,4,4-trimethyl-2,5-dioxo-1-imidazolidinyl)methyl]propanamide]
10 | – | – | Ki [1, 5]: 0.05 nM; Ki [2, 6]: 12.6 nM | CC1(C)NC(=O)N(CC(CS(=O)(=O)c2ccc(-c3ccc(Cl)cc3)cc2)C(=O)NO)C1=O (stereo not shown) [Example 10, 3-[(4′-chloro[1,1′-biphenyl]-4-yl)sulfonyl]-N-hydroxy-2-[(4,4-dimethyl-2,5-dioxo-1-imidazolidinyl)methyl]propanamide]
11 | 12 nM | 5290 nM | – | CCCCN1CC(=O)N(CC(CS(=O)(=O)c2ccc(-c3ccc(Cl)cc3)cc2)C(=O)O)C1=O (stereo not shown) [Example 13]
12 | 8 nM | – | – | O=C(Nc1ccc(S(=O)(=O)CC(CSc2cccs2)C(=O)O)cc1)c1ccccc1 (stereo not shown) [Example 14, 3-[[4-(Benzoylamino)phenyl]sulfonyl]-2-[(2-thienylsulfanyl)methyl]propanoic acid]
13 | 7 nM | 81100 nM | – | O=C(Nc1ccc(S(=O)(=O)CC(CSc2ccccc2)C(=O)O)cc1)c1ccccc1 (stereo not shown) [Example 15, 3-[[4-(Benzoylamino)phenyl]sulfonyl]-2-[(phenylsulfanyl)methyl]propanoic acid]
14 | 9 nM | 9700 nM | – | O=C(O)C(CSc1ccc(O)cc1)CS(=O)(=O)c1ccc(-c2ccc(Cl)cc2)cc1 (stereo not shown) [Example 16, 3-[(4′-chloro[1,1′-biphenyl]-4-yl)sulfonyl]-2-[[(4-hydroxyphenyl)sulfanyl]methyl]propanoic acid]
15 | 9.2 nM | 14700 nM | – | O=C(O)C(COc1ccccc1)CS(=O)(=O)c1ccc(-c2ccc(Cl)cc2)cc1 (stereo not shown) [Example 17, 3-[(4′-Chloro[1,1′-biphenyl]-4-yl)sulfonyl]-2-(phenoxymethyl)propanoic acid, sodium salt]
16 | 7.8 nM | – | – | CCCCN1C(=O)CN(CC(CS(=O)(=O)c2ccc(-c3ccc(Cl)cc3)cc2)C(=O)O)C1=O (stereo not shown) [Example 18, 3-[(4′-chloro[1,1′-biphenyl]-4-yl)sulfonyl]-2-[(3-butyl-2,4-dioxo-1-imidazolidinyl)methyl]propanoic acid]
17 | 17 nM | – | – | N#Cc1ccc(-c2ccc(S(=O)(=O)CC(CSc3ccccc3)C(=O)O)cc2)cc1 (stereo not shown) [Example 19, 3-[(4′-cyano[1,1′-biphenyl]-4-yl)sulfonyl]-2-[(phenylsulfanyl)methyl]propanoic acid]
18 | 3.9 nM | 6290 nM | – | O=C(O)C(CSc1ccccn1)CS(=O)(=O)c1ccc(-c2ccc(Cl)cc2)cc1 (stereo not shown) [Example 20, 3-[(4′-chloro[1,1′-biphenyl]-4-yl)sulfonyl]-2-[(2-pyridinylsulfanyl)methyl]propanoic acid]
19 | 1.4 nM | 50600 nM | – | O=C(Nc1ccc(S(=O)(=O)CC(CSc2ccccc2)C(=O)O)cc1)c1ccc(Cl)cc1 (stereo not shown) [Example 21, 3-[[4-[(4-chlorobenzoyl)amino]phenyl]sulfonyl]-2-[(phenylsulfanyl)methyl]-propanoic acid]
20 | 16 nM | – | – | Cn1ccnc1SCC(CS(=O)(=O)c1ccc(-c2ccc(Cl)cc2)cc1)C(=O)O (stereo not shown) [Example 25, 3-[(4′-chloro[1,1′-biphenyl]-4-yl)sulfonyl]-2-[[(1-methyl-1H-imidazol-2-yl)sulfanyl]methyl]propanoic acid]
21 | 21.5 nM | – | – | N#Cc1ccc(-c2ccc(S(=O)(=O)CC(COc3ccccc3)C(=O)O)cc2)cc1 (stereo not shown) [Example 29, 3-[(4′-cyano[1,1′-biphenyl]-4-yl)sulfonyl]-2-(phenoxymethyl)propanoic acid, sodium salt]
22 | 46 nM | 19600 nM | – | CC(=O)Nc1ccc(OCC(CS(=O)(=O)c2ccc(-c3ccc(Cl)cc3)cc2)C(=O)O)cc1 (stereo not shown) [Example 30, 3-[(4′-chloro[1,1′-biphenyl]-4-yl)sulfonyl]-2-[(4-acetylaminophenoxy)methyl]propanoic acid]
23 | 15 nM | – | – | O=C(O)C(COc1ccccc1CO)CS(=O)(=O)c1ccc(-c2ccc(Cl)cc2)cc1 (stereo not shown) [Example 33, 3-[(4′-chloro[1,1′-biphenyl]-4-yl)sulfonyl]-2-[[2-(hydroxymethyl)phenoxy]-methyl]propanoic acid]
24 | 2.4 nM | 54000 nM | – | O=C(Nc1ccc(S(=O)(=O)CC(COc2ccccc2)C(=O)O)cc1)c1ccc(Cl)cc1 (stereo not shown) [Example 34, 3-[[4-[(4-chlorobenzoyl)amino]phenyl]sulfonyl]-2-(phenoxymethyl)propanoic acid]
25 | 4.8 nM | 67500 nM | – | N#Cc1ccc(C(=O)Nc2ccc(S(=O)(=O)CC(COc3ccccc3)C(=O)O)cc2)cc1 (stereo not shown) [Example 35, 3-[[4-[(4-cyanobenzoyl)amino]phenyl]sulfonyl]-2-(phenoxymethyl)propanoic acid]
26 | 33.4 nM | – | – | Cc1nnc(SCC(CS(=O)(=O)c2ccc(-c3ccc(Cl)cc3)cc2)C(=O)O)s1 (stereo not shown) [Example 36, 3-[(4′-chloro[1,1′-biphenyl]-4-yl)sulfonyl]-2-[[(S-methyl-1,3,4-thiadiazol-2-yl)sulfanyl]methyl]propanoic acid.]
27 | 18.2 nM | – | – | O=C(O)C(CSc1nc2ccccc2[nH]1)CS(=O)(=O)c1ccc(-c2ccc(Cl)cc2)cc1 (stereo not shown) [Example 37, 3-[(4′-chloro[1,1′-biphenyl]-4-yl)sulfonyl]-2-[(1H-benzimidazol-2-yl-sulfanyl)methyl]-propanoic acid]
